Test results published in patent US8822697B2, “Paramagnetic polynuclear metal complex having high self-relaxation rate, preparation method thereof, and contrast medium containing same” (Kyungpook National University Industry-Academic Cooperation …, priority 2009, dated 2014).

Assays:
[1] = Measurement of protonation equilibrium constants (KiH) of the ligands; conditions: for [H2L]/[HL][H] / [H3L]/[H2L][H] / [H5L][H4L][H] / [HL]/[L][H]: protonation equilibrium constant, log K (25° C., μ = 0.10M (KCl)); for ΣpKa: 25° C., μ = 0.10M (KCl)
Description: The protonation equilibrium constant (KiH) can be defined by the equation of KiH═[HiL]/[Hi-1L][H^+], wherein HiL is a protonated ligand (i=1, 2, . . . ).

[2] = Stability constant and pM value for zinc; type: physicochemical; conditions: for {log KZnL(pH 7.4)}: 25° C., μ = 0.10M (KCl); for pZn: pM = −log[Mn+] free at pH 7.4, [Mn+] total = 1 μmol/dm3, [L] total = 1.1 μmol/dm3; for [ZnL]/[Zn][L]: stability constant, log K (25° C., μ = 0.10M (KCl))
Description: (§1) The stability constant (KML) can be defined by the equation of KML=[ML]/[M][L], wherein M is Gd, Ca, Zn, Cu, and L indicates a ligand.
(§2) The pM value can be defined by the equation of pM=−log [Mn^+] at pH=7.4.
[M]=1.0 μmol/dm^3, [L]=1.1 μmol/dm^3

[3] = Stability constant and pM value for calcium; type: physicochemical; conditions: for {log KCaL(PH 7.4)}: 25° C., μ = 0.10M (KCl); for pCa: pM = −log[Mn+] free at pH 7.4, [Mn+] total = 1 μmol/dm3, [L] total = 1.1 μmol/dm3; for [CaL]/[Ca][L]: stability constant, log K (25° C., μ = 0.10M (KCl))
Description: as §1, §2
[M]=1.0 μmol/dm^3, [L]=1.1 μmol/dm^3

[4] = Stability constant and pM value for copper; type: physicochemical; conditions: for {log KCuL(pH 7.4)}: 25° C., μ = 0.10M (KCl); for pCu: pM = −log[Mn+] free at pH 7.4, [Mn+] total = 1 μmol/dm3, [L] total = 1.1 μmol/dm3; for [CuL]/[Cu][L]: stability constant, log K (25° C., μ = 0.10M (KCl))
Description: as §1, §2
[M]=1.0 μmol/dm^3, [L]=1.1 μmol/dm^3

[5] = Stability, conditional stability and selectivity constants and pM value for gadolinium; type: physicochemical; conditions: for log K′sel: conditional stability constant (K′Sel); for log K′sel / {log KGdL(PH 7.4)} / [log Ksel(Gd/Ca)] / [log Ksel(Gd/Cu)] / [log Ksel(Gd/Zn)]: 25° C., μ = 0.10M (KCl); for pGd: pM = −log[Mn+] free at pH 7.4, [Mn+] total = 1 μmol/dm3, [L] total = 1.1 μmol/dm3; for [log Ksel(Gd/Ca)]: selectivity constant Gd over Ca; for [log Ksel(Gd/Cu)]: selectivity constant Gd over Cu; for [log Ksel(Gd/Zn)]: selectivity constant Gd over Zn; for [GdL]/[Gd][L]: stability constant, log K (25° C., μ = 0.10M (KCl))
Description: as §1, §2
[M]=1.0 μmol/dm^3, [L]=1.1 μmol/dm^3

[6] = 20 MHz, 298 K; cited from earlier work
[7] = Measurement of self-relaxation rate (relaxivity) R1 at 1.5 T (64 MHz); type: physicochemical; conditions: inverse recovery method
Description: Thus, the self-relaxation rate is a factor that determines the efficiency of contrast agent in magnetic resonance imaging. T1 (relaxation time) measurements were carried out using an inverse recovery method with a variable […] (TI) at 1.5 T (64 MHz). The magnetic resonance (MR) images were acquired at 35 different T1 values ranging from 50 to 1750 msec. T1 was obtained from the non-linear least square fit of the signal intensity measured at each TI value. Relaxivity (R1) was then calculated as an inverse of relaxation time per mM.

Compound | [H2L]/[HL][H] [1] | [H3L]/[H2L][H] [1] | [HL]/[L][H] [1] | {log KZnL(pH 7.4)} [2] | pZn [2] | [ZnL]/[Zn][L] [2] | {log KCaL(PH 7.4)} [3] | pCa [3] | [CaL]/[Ca][L] [3] | {log KCuL(pH 7.4)} [4] | pCu [4] | [CuL]/[Cu][L] [4] | log K′sel [5] | {log KGdL(PH 7.4)} [5] | pGd [5] | [log Ksel(Gd/Ca)] [5] | [log Ksel(Gd/Cu)] [5] | [log Ksel(Gd/Zn)] [5] | [GdL]/[Gd][L] [5] | R1 [7] | other results
O=C(O)CN(CCN(CC(=O)O)CC(=O)NC(Cc1cnc[nH]1)C(=O)O)CCN(CC(=O)O)CC(=O)NC(Cc1cnc[nH]1)C(=O)O (stereo not drawn) [Complex L1, DTPA-bis-amide-histidine] | 7.59 | 6.52 | 9.52 | 8.37 | 7.37 | 10.93 | 4.30 | 3.30 | 6.86 | 8.42 | 7.42 | 10.98 | 19.59 | 17.03 | 16.03 | 12.73 | 8.66 | 8.66 | 19.59 |  | [H5L][H4L][H] [1]: 3.82
O=C(O)CC(NC(=O)CN(CCN(CCN(CC(=O)O)CC(=O)NC(CC(=O)O)C(=O)O)CC(=O)O)CC(=O)O)C(=O)O (stereo not drawn) [Complex L2, DTPA-bis-amide-aspartic acid] | 9.42 | 5.92 | 11.55 | 8.48 | 7.48 | 14.67 | 4.01 | 30.1 | 10.18 | 8.59 | 7.59 | 14.78 | 10.74 | 14.93 | 13.98 | 10.92 | 6.34 | 6.45 | 21.12 |  | ΣpKa [1]: 28.93; [H5L][H4L][H] [1]: 2.04
CNC[C@H](O)[C@@H](O)[C@H](O)[C@H](O)CO.CNC[C@H](O)[C@@H](O)[C@H](O)[C@H](O)CO.O=C([O-])CN(CCN(CC(=O)[O-])CC(=O)O)CCN(CC(=O)[O-])CC(=O)O.[Gd+3] [Magnevist, (N-Me-glucamine)2[Gd(DTPA)(H2O)]] |  |  |  |  |  |  |  |  |  |  |  |  |  |  |  |  |  |  |  |  | self-relaxation rate [6]: approximately 4.7 mM^−1s^−1
CNC(=O)CN(CCN(CCN(CC(=O)[O-])CC(=O)NC)CC(=O)[O-])CC(=O)[O-].[Gd+3] [Omniscan, [Gd(DTPA-bismethylamide)(H2O)], reference compound] | 4.38 | 3.31 | 9.37 | 10.02 | 9.06 | 12.04 | 5.11 | 4.19 | 7.17 | 11.06 | 10.05 | 13.03 | 9.03 | 14.84 | 13.88 | 9.68 | 3.82 | 4.81 | 16.85 | 3.3 ± 0.03 mM⁻¹ s⁻¹ | ΣpKa [1]: 17.06; self-relaxation rate [6]: 4400 M⁻¹ s⁻¹
O.O=C([O-])CN(CCN(CC(=O)[O-])CC(=O)NC(Cc1cnc[nH]1)C(=O)O)CCN(CC(=O)[O-])CC(=O)NC(Cc1cnc[nH]1)C(=O)O.[Gd+3] (stereo not drawn) [[Gd(L1)H2O]] |  |  |  |  |  |  |  |  |  |  |  |  |  |  |  |  |  |  |  | 5.9 ± 0.03 mM⁻¹ s⁻¹ | 
O.O=C([O-])CN(CCN(CC(=O)[O-])CC(=O)NC(CC(=O)O)C(=O)O)CCN(CC(=O)[O-])CC(=O)NC(CC(=O)O)C(=O)O.[Gd+3] (stereo not drawn) [[Gd(L2)H2O]] |  |  |  |  |  |  |  |  |  |  |  |  |  |  |  |  |  |  |  | 6.9 ± 0.04 mM⁻¹ s⁻¹ | 
